From patent publication US11382914B2, “Usage and dosage of therapeutic agents for endometriosis” (KISSEI PHARMACEUTICAL CO., LTD., priority 2016, dated 2022)
Where two headings read alike, the source gives them in different places.

What was measured:
[1] = long-term study; cited from earlier work
[2] = system: patients with endometriosis; details: for Changes in average NRS for pelvic pain (regardless of menstruation) between the pre-treatment period and the time of the final assessment during treatment: oral once a day for 12 weeks
Protocol: Clinical Trial 1 in Patients with Endometriosis (Double-Blind Parallel-Group Comparison Study)
To 107 patients with endometriosis, Compound 2 at a dose of 50 mg (29 patients), 100 mg (26 patients) or 200 mg (28 patients) or a placebo (24 patients) was orally administered after breakfast once a day for 12 weeks. These groups are hereinafter referred to as a 50-mg administration group, a 100-mg administration group, a 200-mg administration group, and a placebo group. The administration was started from the second to fifth days of menstruation.
As evaluation scales for safety, for example, the occurrence of an adverse event, the occurrence of a side effect, and vaginal bleeding were evaluated.

[3] = system: patients with endometriosis; details: for Changes in average NRS for pelvic pain (regardless of menstruation) between the pre-treatment period and the time of final assessment during the treatment period: oral once a day for 8 weeks
Protocol: Clinical Trial 2 in Patients with Endometriosis (Randomized Non Blind Parallel-Group Comparison Study)
To 21 patients with endometriosis, Compound 2 was administered orally at a dose of 75 mg (11 patients) or 150 mg (10 patients) after breakfast once a day for 8 weeks. These groups are hereinafter referred to as a 75-mg administration group and a 150-mg administration group. The administration was started from the second to fifth days of menstruation.

C[C@]12CCC3=C4CCC(=O)C=C4CC[C@H]3[C@@H]1CC[C@@]2(O)CC#N [Dienogest, dienogest]
Incidence of atypical genital bleeding as a side effect [1]: 71.9%

3-[2-fluoro-5-(2,3-difluoro-6-methoxybenzyloxy)-4-methoxyphenyl]-2,4-dioxo-1,2,3,4-tetrahydrothieno[3,4-d]pyrimidine-5-carboxylic acid choline salt [Compound 2]
Percentage of patients who had menstruation during treatment (Yes) ([2]; 50 mg): 72.4%
Percentage of patients who had no menstruation during treatment (No) ([2]; 50 mg): 27.6%
Percentage of patients who had menstruation during treatment (Yes) ([2]; 100 mg): 26.9%
Percentage of patients who had no menstruation during treatment (No) ([2]; 100 mg): 73.1%
Percentage of patients who had menstruation during treatment (Yes) ([2]; 200 mg): 3.6%
Percentage of patients who had no menstruation during treatment (No) ([2]; 200 mg): 96.4%
Number of cases where side effects associated with hypoestrogenism (hot flashes, headache, dizziness, hyperhidrosis) were developed ([2]; 50-mg administration group (29 patients)): 9
Changes in average NRS for pelvic pain (regardless of menstruation) between the pre-treatment period and the time of the final assessment during treatment ([2]; 50-mg administration group): −1.13
E2 concentrations during treatment ([2]; 100-mg administration group): lower than 20 pg/mL
Number of cases where side effects associated with hypoestrogenism (hot flashes, headache, dizziness, hyperhidrosis) were developed ([2]; 100-mg administration group (26 patients)): 12
Changes in average NRS for pelvic pain (regardless of menstruation) between the pre-treatment period and the time of the final assessment during treatment ([2]; 100-mg administration group): −1.27
E2 concentrations during treatment ([2]; 200-mg administration group): lower than 20 pg/mL
Number of cases where side effects associated with hypoestrogenism (hot flashes, headache, dizziness, hyperhidrosis) were developed ([2]; 200-mg administration group (28 patients)): 28
Changes in average NRS for pelvic pain (regardless of menstruation) between the pre-treatment period and the time of the final assessment during treatment ([2]; 200-mg administration group): −1.33
E2 secretion during treatment ([2]; all groups (50, 100, 200 mg)): Suppression of E2 secretion was observed
Improvement of average NRS for pelvic pain as compared to the placebo group ([2]; all groups (50, 100, 200 mg) vs placebo): Significant improvements
Temporal pain, observations by others, use rate of an analgesic agent, sizes of an ovarian chocolate cyst and the uterus, as compared to the placebo group ([2]; groups administered 50, 100, 200 mg vs placebo): improved
Occurrence of side effects associated with hypoestrogenism ([2]; groups with E2 concentration of 20 pg/mL and/or more during treatment): 28.2%
Occurrence of side effects associated with hypoestrogenism ([2]; groups with E2 concentration of less than 20 pg/mL during treatment): 54.8%
Changes in average NRS for pelvic pain (regardless of menstruation) between the pre-treatment period and the time of final assessment during the treatment period ([3]; 75-mg administration group): −0.94
Median E2 concentrations during treatment ([3]; 75-mg administration group, week 4): 35 pg/mL
Median E2 concentrations during treatment ([3]; 75-mg administration group, week 8): 24 pg/mL
Changes in average NRS for pelvic pain (regardless of menstruation) between the pre-treatment period and the time of final assessment during the treatment period ([3]; 150-mg administration group): −1.68
Median E2 concentrations during treatment ([3]; 150-mg administration group, week 4): 10 pg/mL
Median E2 concentrations during treatment ([3]; 150-mg administration group, week 8): 10 pg/mL
Improvement of average NRS for pelvic pain ([3]; all groups (75, 150 mg)): tendency of improvement
